Consider 15 compounds from patent EP3741762A1, “OXALAMIDO-SUBSTITUTED TRICYCLIC INHIBITORS OF HEPATITIS B VIRUS” (priority 2019, dated 2020).

This test deals with HBV. Description: Anti-HBV activity in vitro: quantification of extracellular HBV DNA by direct qPCR in HepAD38 cells. The class given is cell-based. The settings on record: Hepatitis B virus, tetracycline-free medium, 96 hours at 37°C, reported as EC50 threshold value, read-out: HBV inh EC50. An excerpt: HepAD38 cell line (Ladner et al., Antimicrob Agents Chemother, 1997, 41, 1715-20) was used for HBV inhibition assays. HepAD38 is a subclone, derived from Hepatoblastoma cell line HepG2 (ATCC® Number: HB-8065™), that expresses HBV genome under the transcriptional control of a tetracycline-responsive promoter in a TET-OFF system: addition of tetracycline (TET) or doxycycline suppresses HBV replication, while its removal switches on the process allowing HBV viral particles release in the cell supernatant. HepAD38 cell line is maintained in DMEM/F12, supplemented with 10% of fetal bovine serum, 1% of glutamine, 1% of penicillin/streptomycin, 0.4 mg/ml G418 and 0,3 ug/ml tetracycline. For the HBV inhibition assay, doxycycline-free medium is used in order to allow virion production.
HBV inhibition activity in vitro was performed in 96 multiwell plates. During the initial (primary) screening, compounds were first tested in triplicates at concentrations of 0.02 µM, 0.1 µM, 0.5µM and 1µM. For selected compounds, an 8-point dose-response curve was obtained using 1:2 serial dilutions (starting from 0.01µM, 0.1µM, 0.4µM or 5 µM, depending on the degree of inhibition observed during the primary screening). From the dose-response curves, half maximal effective concentration (EC50) could be calculated (see also below).
In more detail, compounds - typically dissolved in DMSO stock solutions - were diluted to 2x the final desired concentration in 100 µl of the above medium (without doxycycline) and plated in three replicates in the 96-well plates.
Simultaneously, HepAD38 cells - extensively pre-washed in tetracycline-free medium in order to induce HBV production - were suspended at 2^∗10^4 cells in 100 µl of tetracycline-free medium and added to each well of the plate, to yield a final assay volume of 200 µl DMSO - used for stock solutions and compounds dilutions - which was always present in the assays at a final concentration of 0.5%.
Plates were then incubated 96 hours at 37°C and then subjected to cell viability assays and extracellular HBV quantification, in order to evaluate both the cytotoxic potential and the antiviral activity of compounds. Cytotoxicity was assessed by a commercial fluorescence assay that measures the metabolic activity of cells, directly related to cell viability (Cell Titer Blue, Promega). Anti-HBV activity was evaluated by quantification of extracellular HBV DNA with direct qPCR. In particular, supernatant was collected and centrifuged for cell debris clarification, viral DNA was extracted from virions by addition of lysis buffer (1 mM 1,4-dithiothreitol, 0.2% sodium dodecyl sulphate) and incubated at 95°C for 10 min. Samples were then diluted 1:40 and real time PCR amplification was performed with SYBR green assay (Power SYBR™ Green PCR Master Mix-Thermo Fisher Scientific) and specific HBV primer (HBV-DF:5'-[…]-3' (SEQ ID No. 1), HBV-DR:5'-[…]-3' (SEQ ID No.2)).
Antiviral activity data for each compound are reported as EC50 threshold value (see Table 1 legend). Excel and Graphpad Prism programs are typically used for data elaboration and EC50 calculation.
A general note: Quantitative PCR measures a nucleic acid by following its amplification.

What is called EC50 is the concentration giving half of the maximal effect. In the case of `CN(C)C(=O)C(=O)N1C[C@@H]2COc3c(cn(C)c3C(=O)Nc3cc(F)c(F)c(F)c3)S(=O)(=O)N[C@@H]2C1` (relative stereo) [Example E1, cis-2-(2-(dimethylamino)-2-oxoacetyl)-7-methyl-N-(3,4,5-trifluorophenyl)-2,3,3a,4,10,10a-hexahydro-1H,7H-dipyrrolo[3,4-b:3',4'-f][1,4,5]oxathiazocine-8-carboxamide 5,5-dioxide], the EC50 is less than 500 nM.
As for `Cc1cc(NC(=O)c2c3c(cn2C)S(=O)(=O)N[C@@H]2CN(C(=O)C(=O)NC4(C)COC4)C[C@@H]2CO3)ccc1F` (relative stereo) [Example E2, cis-N-(4-fluoro-3-methylphenyl)-7-methyl-2-(2-((3-methyloxetan-3-yl)amino)-2-oxoacetyl)-2,3,3a,4,10,10a-hexahydro-1H,7H-dipyrrolo[3,4-b:3',4'-f][1,4,5]oxathiazocine-8-carboxamide 5,5-dioxide], the EC50 was less than 500 nM.
On to `CNC(=O)C(=O)N1C[C@@H]2COc3c(cn(C)c3C(=O)Nc3ccc(F)c(C)c3)S(=O)(=O)N[C@@H]2C1` (relative stereo) [Example E10, cis N-(4-fluoro-3-methylphenyl)-7-methyl-2-(2-(methylamino)-2-oxoacetyl)-2,3,3a,4,10,10a-hexahydro-1H,7H-dipyrrolo[3,4-b:3',4'-f][1,4,5]oxathiazocine-8-carboxamide 5,5-dioxide], for which the EC50 is less than 500 nM.
In the case of `Cc1cc(NC(=O)c2c3c(cn2C)S(=O)(=O)N[C@@H]2CN(C(=O)C(N)=O)C[C@@H]2CO3)ccc1F` (relative stereo) [Example E11, cis-2-(2-amino-2-oxoacetyl)-N-(4-fluoro-3-methylphenyl)-7-methyl-2,3,3a,4,10,10a-hexahydro-1H,7H-dipyrrolo[3,4-b:3',4'-f][1,4,5]oxathiazocine-8-carboxamide 5,5-dioxide], the half-maximal effective concentration (EC50) was less than 500 nM.
As for `CNC(=O)C(=O)N1C[C@@H]2COc3c(cn(C)c3C(=O)Nc3cc(F)c(F)c(F)c3)S(=O)(=O)N[C@@H]2C1` (relative stereo) [Example E12, cis-7-methyl-2-(2-(methylamino)-2-oxoacetyl)-N-(3,4,5-trifluorophenyl)-2,3,3a,4,10,10a-hexahydro-1H,7H-dipyrrolo[3,4-b:3',4'-f][1,4,5]oxathiazocine-8-carboxamide 5,5-dioxide], the EC50 was less than 500 nM.
`Cn1cc2c(c1C(=O)Nc1cc(F)c(F)c(F)c1)OC[C@H]1CN(C(=O)C(N)=O)C[C@H]1NS2(=O)=O` (relative stereo) [Example E13, cis-2-(2-amino-2-oxoacetyl)-7-methyl-N-(3,4,5-trifluorophenyl)-2,3,3a,4,10,10a-hexahydro-1H,7H-dipyrrolo[3,4-b:3',4'-f][1,4,5]oxathiazocine-8-carboxamide 5,5-dioxide]: the EC50 is less than 500 nM.
In the case of `Cc1cc(NC(=O)c2c3c(cn2C)S(=O)(=O)N[C@@H]2CN(C(=O)C(=O)NC4CC4)C[C@]2(C)CO3)ccc1F` (relative stereo) [Example E25, cis-2-(2-(cyclopropylamino)-2-oxoacetyl)-N-(4-fluoro-3-methylphenyl)-7,10a-dimethyl-2,3,3a,4,10,10a-hexahydro-1H,7H-dipyrrolo[3,4-b:3',4'-f][1,4,5]oxathiazocine-8-carboxamide 5,5-dioxide], the concentration for a half-maximal effect (EC50) is less than 500 nM.
Consider `Cc1cc(NC(=O)c2c3c(cn2C)S(=O)(=O)N[C@]2(C)CN(C(=O)C(=O)NC4CC4)C[C@@H]2CO3)ccc1F` (relative stereo) [Example E28, cis-2-(2-(cyclopropylamino)-2-oxoacetyl)-N-(4-fluoro-3-methylphenyl)-3a,7-dimethyl-2,3,3a,4,10,10a-hexahydro-1H,7H-dipyrrolo[3,4-b:3',4'-f][1,4,5]oxathiazocine-8-carboxamide 5,5-dioxide], for which the EC50 is less than 500 nM.
Regarding `Cc1cc(NC(=O)c2c3c(cn2C)S(=O)(=O)N[C@@H]2CN(C(=O)C(=O)NC4CC4)C[C@H]2CO3)ccc1F` (relative stereo) [Example E31, trans-2-(2-(cyclopropylamino)-2-oxoacetyl)-N-(4-fluoro-3-methylphenyl)-7-methyl-2,3,3a,4,10,10a-hexahydro-1H,7H-dipyrrolo[3,4-b:3',4'-f][1,4,5]oxathiazocine-8-carboxamide 5,5-dioxide], the EC50 is less than 500 nM.
Turning to `Cc1cc(NC(=O)c2c3c(cn2C)S(=O)(=O)N[C@@H]2CN(C(=O)C(=O)N[C@H](C)C(F)(F)F)C[C@]2(C)CO3)ccc1F` (stereo in doubt) [Example E26, Cis-N-(4-fluoro-3-methylphenyl)-7,10a-dimethyl-2-(2-oxo-2-(((R)-1,1,1-trifluoropropan-2-yl)amino)acetyl)-2,3,3a,4,10,10a-hexahydro-1H,7H-dipyrrolo[3,4-b:3',4'-f][1,4,5]oxathiazocine-8-carboxamide 5,5-dioxide], the EC50 is less than 500 nM.
Consider `Cc1cc(NC(=O)c2c3c(cn2C)S(=O)(=O)N[C@]2(C)CN(C(=O)C(=O)N[C@H](C)C(F)(F)F)C[C@@H]2CO3)ccc1F` (stereo in doubt) [Example E27, Cis-N-(4-fluoro-3-methylphenyl)-3a,7-dimethyl-2-(2-oxo-2-(((R)-1,1,1-trifluoropropan-2-yl)amino)acetyl)-2,3,3a,4,10,10a-hexahydro-1H,7H-dipyrrolo[3,4-b:3',4'-f][1,4,5] oxathiazocine-8-carboxamide 5,5-dioxide], for which the EC50 is less than 500 nM.
For the compound `Cc1cc(NC(=O)c2c3c(cn2C)S(=O)(=O)N[C@@H]2CN(C(=O)C(=O)N[C@H](C)C(F)(F)F)C[C@H]2CO3)ccc1F` (stereo in doubt) [Example E30, trans-N-(4-fluoro-3-methylphenyl)-7-methyl-2-(2-oxo-2-(((R)-1,1,1-trifluoropropan-2-yl)amino)acetyl)-2,3,3a,4,10,10a-hexahydro-1H,7H-dipyrrolo[3,4-b:3',4'-f][1,4,5]oxathiazocine-8-carboxamide 5,5-dioxide], the EC50 was less than 500 nM.
Turning to `Cc1cc(NC(=O)c2c3c(cn2C)S(=O)(=O)N[C@H]2CN(C(=O)C(=O)NC4(C)COC4)C[C@H]2CO3)ccc1F` [Example E3, (3aR,10aR)-N-(4-fluoro-3-methylphenyl)-7-methyl-2-(2-((3-methyloxetan-3-yl)amino)-2-oxoacetyl)-2,3,3a,4,10,10a-hexahydro-1H,7H-dipyrrolo[3,4-b:3',4'-f][1,4,5]oxathiazocine-8-carboxamide 5,5-dioxide], the concentration for a half-maximal effect (EC50) is less than 500 nM.
As to `Cn1cc2c(c1C(=O)Nc1cc(F)c(F)c(F)c1)OC[C@@H]1CN(C(=O)C(=O)NC3(C)COC3)C[C@@H]1NS2(=O)=O` [Example E4, (3aR,10aR)-7-methyl-2-(2-((3-methyloxetan-3-yl)amino)-2-oxoacetyl)-N-(3,4,5-trifluorophenyl)-2,3,3a,4,10,10a-hexahydro-1H,7H-dipyrrolo[3,4-b:3',4'-f][1,4,5]oxathiazocine-8-carboxamide 5,5-dioxide], the EC50 is less than 500 nM.
With `Cn1cc2c(c1C(=O)Nc1ccc(F)c(Cl)c1)OC[C@@H]1CN(C(=O)C(=O)NC3(C)COC3)C[C@@H]1NS2(=O)=O` [Example E5, (3aR,10aR)-N-(3-chloro-4-fluorophenyl)-7-methyl-2-(2-((3-methyloxetan-3-yl)amino)-2-oxoacetyl)-2,3,3a,4,10,10a-hexahydro-1H,7H-dipyrrolo[3,4-b:3',4'-f][1,4,5] oxathiazocine-8-carboxamide 5,5-dioxide], the half-maximal effective concentration (EC50) was less than 500 nM.
